Experimental data reported in US5817815A, “Pharmacologically active enantiomers” (Angelini Ricerche S.p.A. Societa Consortile, priority 1993, dated 1998).

Legend:
[1] = analgesic activity, phenylquinone test in mice via subcutaneous route; assay type: in vivo; settings: for ED50: Mus musculus, sc, mice, subcutaneous, phenylquinone test; for analgesic activity, in words: comparison of enantiomers and racemate
Protocol: Thirty animals were treated with each product.

[2] = target: T1, deferent of rat (Rattus norvegicus); test: alphalytic activity on an isolated organ (deferent of rat); settings: isolated deferent of rat; read-out: Alphalytic activity pA2 (converted)
T1 construct: evaluated on an isolated organ (deferent of rat); from tissue; host or cells: isolated vas deferens of rat
Protocol: (§1) Since an interference with the adrenergic system is an index of undesirable effects, both the capability of binding to alpha 1 adrenergic receptors, as IC50 (Table 2), and the alphalytic activity (Table 3) of the same compounds have been evaluated.
(§2) In turn, the alphalytic activity was evaluated on an isolated organ (deferent of rat) according to the technique described in "Clinical and Experimental Pharmacology & Physiology", 6, 275-279, (1979).

[3] = target: alpha 1 adrenergic receptors; test: affinity for alpha 1 adrenergic receptors, receptor binding test; settings: for IC50: receptor binding; for interference with the adrenergic receptor, in words: comparison with racemate
From the text: as §1
As far as the receptor binding test is concerned, reference is made to "Molecular Pharmacology", 20, 295-301, (1981).

deferent of rat = target: T2, deferent of rat (Rattus norvegicus, UniProt P43140); test: alphalytic activity on an isolated organ (deferent of rat); settings: comparison of enantiomers and racemate
T2 construct: evaluated on an isolated organ (deferent of rat); from tissue; host or cells: isolated vas deferens of rat
T2 sequence (P43140 1-466): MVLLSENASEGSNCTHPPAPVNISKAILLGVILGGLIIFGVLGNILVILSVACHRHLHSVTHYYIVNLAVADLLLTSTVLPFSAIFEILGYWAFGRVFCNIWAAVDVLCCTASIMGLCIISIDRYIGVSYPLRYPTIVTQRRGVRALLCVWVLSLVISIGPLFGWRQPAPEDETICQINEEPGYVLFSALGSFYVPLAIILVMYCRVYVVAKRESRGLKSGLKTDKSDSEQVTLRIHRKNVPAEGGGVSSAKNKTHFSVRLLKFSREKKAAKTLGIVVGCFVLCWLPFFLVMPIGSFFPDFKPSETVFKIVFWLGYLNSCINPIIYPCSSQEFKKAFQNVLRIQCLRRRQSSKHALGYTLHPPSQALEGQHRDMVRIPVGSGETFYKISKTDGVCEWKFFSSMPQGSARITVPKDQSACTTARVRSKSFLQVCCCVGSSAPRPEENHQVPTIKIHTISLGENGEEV
Protocol: as §1, §2

Kb [2] [µM] | IC50 [3] [µM] | alphalytic activity, in words (deferent of rat) | interference with the adrenergic receptor, in words [3] | alphalytic activity, in words (deferent of rat; listed as (S) enantiomer) | Structure (SMILES) | ED50 [1] [mg/kg] | analgesic activity, in words [1]
0.02 | 0.471 | – | – | – | CC1CN(c2cccc(Cl)c2)CCN1CCCn1nc2ccccn2c1=O (racemic) [Racemate, reference compound] | > 12.5 | less analgesic activity compared to the single enantiomers
0.178 | 0.533 | lower than those of racemate | lower than those of racemate | – | C[C@@H]1CN(c2cccc(Cl)c2)CCN1CCCn1nc2ccccn2c1=O [(R), (R)-2-[3-[4-(3-chlorophenyl)-1-(2-methyl)-piperazinyl]-propyl]-1,2,4-triazol[4,3-a]-pyridine-3(2H)-one] | 9.02 | –
3.98 | 0.981 | lower than those of racemate | lower than those of racemate | lower than that of (R) enantiomer | C[C@H]1CN(c2cccc(Cl)c2)CCN1CCCn1nc2ccccn2c1=O [(S), (S)-2-[3-[4-(3-chlorophenyl)-1-(2-methyl)-piperazinyl]-propyl]-1,2,4-triazol[4,3-a]-pyridine-3(2H)-one] | 7.8 | more active than (R) enantiomer
